Reference: ChEMBL document CHEMBL1147800, “Osteoblast differentiation stimulating activity of biflavonoids from Cephalotaxus koreana” (2006)
The source made the active and inactive calls. The calls are words filed in the database; no cut-off is given here.

What was measured:
[1] = tested on: Osteoblast; test: Effect on mineralization in mouse primary osteoblasts by measuring calcium deposition; format: functional, cell-based
[2] = tested on: Osteoblast; test: Increase in ALP activity in mouse primary osteoblasts at 1 uM relative to control; format: functional
[3] = tested on: Osteoblast; test: Increase in ALP activity in mouse primary osteoblasts at 10 uM relative to control; format: functional
[4] = tested on: Osteoblast; test: Increase in collagen synthesis in mouse primary osteoblasts at 10 uM relative to control; format: functional
[5] = tested on: Osteoblast; test: Increase in ALP activity in mouse primary osteoblasts at 20 uM relative to control; format: functional
[6] = tested on: Osteoblast; test: Increase in collagen synthesis in mouse primary osteoblasts; format: functional, cell-based
[7] = tested on: Osteoblast; test: Cytotoxicity against mouse primary osteoblasts at 20 uM by MTT assay; format: functional, cell-based

Row | SMILES | Activity [1] | Activity [2] [%] | Activity [3] [%] | Activity [4] [%] | Activity [5] [%] | Activity [6] | Activity [7]
1 | COc1ccc(-c2cc(=O)c3c(O)cc(O)c(-c4cc(-c5cc(=O)c6c(O)cc(OC)cc6o5)ccc4OC)c3o2)cc1 [SCIADOPITISIN] | Active | 121.1 | 149 | 180 | 153 | – | –
2 | COc1ccc(-c2cc(=O)c3c(O)cc(OC)c(-c4cc(-c5cc(=O)c6c(O)cc(OC)cc6o5)ccc4OC)c3o2)cc1 | Active | 105.1 | 147.3 | – | 149.5 | Active | –
3 | COc1ccc(-c2cc(=O)c3c(O)cc(O)cc3o2)cc1-c1c(OC)cc(O)c2c(=O)cc(-c3ccc(O)cc3)oc12 | – | 101.1 | 113 | – | 73.5 | – | Active
4 | COc1cc(O)c2c(=O)cc(-c3ccc(OC)c(-c4c(O)cc(O)c5c(=O)cc(-c6ccc(O)cc6)oc45)c3)oc2c1 [GINKGETIN] | – | 116.8 | 69.3 | – | 39.9 | – | Active
5 | COc1cc(O)c2c(=O)cc(-c3ccc(OC)c(-c4c(OC)cc(O)c5c(=O)cc(-c6ccc(O)cc6)oc45)c3)oc2c1 | – | 108.4 | 129.7 | – | 122 | – | –
6 | COc1ccc(-c2cc(=O)c3c(O)cc(O)cc3o2)cc1-c1c(O)cc(O)c2c(=O)cc(-c3ccc(O)cc3)oc12 [BILOBETIN] | Active | 100.9 | 131.9 | – | 130.6 | – | –
7 | O=c1c(-c2ccc(O)cc2)coc2cc(O)ccc12 [DAIDZEIN] | – | 107.8 | 132.8 | – | 128.1 | – | –
